Reference: the OligoGym collection
These antisense oligonucleotides have a phosphorothioate backbone; sugars and methylation of C are not fully specified.

These sequences were tested against GNAI2. Conditions: ASO.
Also: test concentration or dose not given here.

Row | Sequence | remaining target (mRNA or protein) (fraction of control)
1 | AAAGAGAGGAAAGAGGAG | 0.99
2 | AACATTTGGACTTGGCTG | 0.76
3 | ACACAGACAAGACAATGT | ≥ 1
4 | ACATCTTGAAGTGTAGGT | 0.78
5 | ACCAGCATCTCAGACAAG | ≥ 1
6 | AGACAAGGGCAGGCTTCA | 0.37
7 | AGCCCATCCCGCCGTCCG | 0.91
8 | AGCTGCCTGGCGTCGTCC | 0.34
9 | AGCTGGTATTCCCTTGAG | 0.55
10 | AGGAAGAGGATGATGGAC | ≥ 1
11 | AGGCTCCCTGTAAACATT | 0.77
12 | AGGTCGTTCAGGTAGTAG | 0.64
13 | AGTCCTTCAGGTTGTTCT | 0.54
14 | ATGGTGCTCTTCCCTGAC | 0.52
15 | CAACAGCAGCAACTTCAC | 0.89
16 | CCCCTCCCTCATACACAG | 0.62
17 | CCCGCCCGACCCACCCGA | 0.62
18 | CCCTCCAGACGCAGCCTT | 0.47
19 | CCTCAAACTTACTCTGGA | 0.85
20 | CGCAGAAGATGATGGCTG | 0.67

Row | Sequence | remaining target (mRNA or protein) (fraction of control)
21 | CGCCCTCAAAGCAGTGGA | 0.61
22 | CGGACAGGTCATCAGGGA | 0.59
23 | CGTTCTTGGTGTCGGTGG | 0.39
24 | CTGCTTGACGATGGTGCT | 0.6
25 | CTGTGACGCCCTCAAAGC | 0.51
26 | CTTCCCTGACTCCCCAGC | 0.3
27 | CTTGAAGGTGAAGTGTGT | 0.74
28 | GAACATAAGCCAGAAGGG | 0.94
29 | GCCCCGCTGCCCCTCAGA | 0.65
30 | GCGAACCCCTCCCCTACG | 0.71
31 | GCGCTTATTCAGGTCCTC | 0.33
32 | GGAAAGAGGAGAAAAGCG | 0.65
33 | GGCAGGCTTCAAACAGGG | 0.52
34 | GGCCTGTGCGAACCCCTC | 0.96
35 | GGGAAGCAGATGGTCAGG | 0.86
36 | GGGTCCGTAGCACATCTT | 0.47
37 | GGTTCATCTCCTCGTCCT | 0.64
38 | TGAAGTGTGTCTCCACGA | 0.61
39 | TGAGCAGGTGGACTGTGG | 0.31
40 | TTCAGGTCCTCAAACTTA | 0.38

These sequences were tested against ITGB3. Conditions: ASO.

Row | Sequence | remaining target (mRNA or protein) (fraction of control)
41 | AAAGGCACAGGCAGCTCT | ≥ 1
42 | AAGCGGGTCACCTGGTCA | ≥ 1
43 | AAGGTAGACGTGGCCTCT | 0.71
44 | ACACACACATAAACACAC | ≥ 1
45 | ACATACTGACATTCTCCC | ≥ 1
46 | ACCACATACAGGATGGAC | ≥ 1
47 | ACGACACAGTCATCCTCA | ≥ 1
48 | ACTCACTGGGAACTCGAT | 0.66
49 | AGAAGTCGTCACACTCGC | 0.72
50 | AGACAACTCTTCAGGGAG | 0.62
51 | AGAGATTGACTACATTTT | 0.93
52 | AGATGCTGGTACATCCCC | 0.4
53 | AGCTGCTGAGAGTCAGGC | 0.22
54 | AGCTTCTCAGTCATCAGC | 0.28
55 | AGGCATCTGGGCAGGTGG | 0.9
56 | AGTCCTCCTCTGAGCACT | 0.55
57 | ATGACTGCTTATCATTAA | ≥ 1
58 | CAATAAGGCAAATCTGAA | 0.77
59 | CACATTGACCACAGAGGC | 0.74
60 | CATTCCTCCAGCCAATCT | 0.6

Row | Sequence | remaining target (mRNA or protein) (fraction of control)
61 | CCACGGGCTTTATGGTAA | 0.63
62 | CTTCCGTCCAATGCTATA | 0.96
63 | CTTTAGAACGGATTTTCC | ≥ 1
64 | GACTCCTGCAATCCTGGC | 0.53
65 | GCATCCTTGCCAGTGTCC | 0.47
66 | GCATCTCGTCCGCCTCCC | 0.44
67 | GCCAGCACAGTCACCCAG | ≥ 1
68 | GCCCATTGCTGGACATGC | ≥ 1
69 | GCCCCGAAGCCAATCCGC | ≥ 1
70 | GTGATGAGGAGTTTCCAG | 0.98
71 | GTTCTGGATGCTCCACAG | 0.55
72 | TCAAACTTCTTACACTCC | 0.54
73 | TCACCCTCAAGCTAAGCA | ≥ 1
74 | TCACCGTGTCTCCAATCT | 0.53
75 | TCAGCTTGGGCCTGGCAG | 0.6
76 | TCCTTCGGCCTGAGGGAG | 0.57
77 | TCTCACTGAGGTAATGAA | 0.66
78 | TGGATGGAGAAATTCTTC | 0.64
79 | TGTCACTACCAACATGAC | 0.32
80 | TGTCCCATTTTGCTCTGG | 0.53

Each sequence was assayed against PYGL. Conditions: ASO.

Row | Sequence | remaining target (mRNA or protein) (fraction of control)
81 | ACAGTTCAAGAGCTGTCGCT | 0.39
82 | ACGGGCCAGCGCTCCAGGGC | 0.47
83 | AGGATGGGTTGATCTTCACT | 0.39
84 | AGTATTCTTTTGCCTCGTAC | 0.21
85 | ATCACCCAGGAAGCTGTGGA | 0.31
86 | ATCAGAGACATCCTTCTCAG | 0.33
87 | ATCTGTGGCTGGAATGACTT | 0.79
88 | ATGCTCATGCCAAAGATGAA | 0.98
89 | ATGCTTCTGATTTATCTCAT | 0.49
90 | ATTGTCATTGGGATAGAGGA | 0.49
91 | ATTTTGCAGACCGAGGTTGA | 0.31
92 | CACAGCATGGGAACCGACAA | 0.15
93 | CAGCGGTTCGCCCATGGCTG | 0.98
94 | CAGCTTTACCACCAATGATA | 0.29
95 | CCACATTGGCCCCATCCATG | 0.19
96 | CCCATGTAAAATTCCAGAGA | 0.44
97 | CCCCATTCCCAGAGATACTC | 0.32
98 | CCGCCCCGCCGCGCCAGGAG | ≥ 1
99 | CGGGCTGCGCAGAGAGCTGG | 0.87
100 | CTCTTCTATATCCAATCCAA | 0.63
101 | CTGCAAGTCCTGGGTTGCAG | 0.49
102 | CTTGACCAGCGTGAAGTGCA | 0.48

What follows are sequences tested against SMAD2. Conditions: ASO.

Row | Sequence | remaining target (mRNA or protein) (fraction of control)
103 | AAAGCCATCTACAGTGAG | 0.34
104 | AAGTGCTTGGTATGGTAA | 0.43
105 | AATGCTATGACAGAAGAG | 0.76
106 | ACAGATTCCACAAGGTGC | 0.22
107 | ACTGTAGAGGTCCATTCA | 0.42
108 | AGATTACAGCCTGGTGGA | 0.57
109 | AGCTGCTTCTCCGCCGCC | 0.27
110 | CACCCTTTCACAAAACTC | 0.15
111 | CAGGTTCTGAGTAAGTAA | 0.54
112 | CCTTCTTGTCATTTCTAC | 0.57
113 | CGTGAATGGCAAGATGGA | 0.47
114 | CTAATCGTCCTGTTTTCT | 0.33
115 | CTCACACCACTTTTCTTC | 0.1
116 | CTCTCCTCCGCCTGCTCC | 0.01
117 | CTCTTCACAACTGGCGGC | 0.16
118 | CTGAGCCAGAAGAGCAGC | 0.18
119 | CTTCACCAGACTTTTCAC | 0.15
120 | CTTCCATCCCAGCAGTCT | 0.1
121 | GAGACCTGGTTTGTTCAG | 0.46

Row | Sequence | remaining target (mRNA or protein) (fraction of control)
122 | GAGAGCCTGTGTCCATAC | 0.29
123 | GAGGTGGCGTTTCTGGAA | 0.29
124 | GAGTGGTGATGGCTTTCT | 0.4
125 | GATAGTAAACAGTCCATA | 0.5
126 | GCGGAAGTTCTGTTAGGA | 0.43
127 | GGAAAGAGTAGTAGGAGA | 0.48
128 | GGCAAAACTGGTGTCTCA | 0.26
129 | GGTAACACATTTAGTATT | 0.48
130 | GTTTCTCCAACCCTCTGA | 0.2
131 | TAAACCTAAGCAGAACCT | 0.37
132 | TAACATTGGAGAGTAAAC | 0.54
133 | TATTACAGTTTTGAGTGG | 0.52
134 | TCACTGCTTTCTCACACC | 0.08
135 | TCTCTGATAGTGGTAAGG | 0.49
136 | TGCTCCTCCAGACCCACC | 0.01
137 | TGTTGGTCACTTGTTTCT | 0.58
138 | TTAGTGTTTTCTGGAATG | 0.48
139 | TTCCTGCCCATTCTGCTC | 0.08
140 | TTCGATGGGATACCTGGA | 0.99
